In ChEMBL document CHEMBL1201862, “PubChem BioAssay data set” (2004):
Where “and” joins values, the source holds several entries; their conditions need not be identical. Equal entries are not always repeated.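 Results reflect a 48-hour exposure of cells in 96-well plates to compound at five concentrations. GI50: concentration for 50% inhibition of growth.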 Calls of active or inactive are those of the source. Cut-off read from the data, not from the text of the source: active = GI50 up to about 1.1 µM and inactive = higher.

What was measured:
Test in all cases: DTP human tumour cell line panel, 48 h
UACC-257 = system: UACC-257
SK-OV-3 = system: SK-OV-3
HCC 2998 = system: HCC 2998
OVCAR-8 = system: OVCAR-8
Malme-3M = system: Malme-3M
SF-268 = system: SF-268
DMS-273 = system: DMS-273
CCRF-CEM = system: CCRF-CEM
RPMI-8226 = system: RPMI-8226
RXF 393 = system: RXF 393
MOLT-4 = system: MOLT-4
KM12 = system: KM12
NCI/ADR-RES = system: NCI/ADR-RES
LOX IMVI = system: LOX IMVI
SF-539 = system: SF-539
SK-MEL-2 = system: SK-MEL-2
SR = system: SR
ACHN = system: ACHN
Hs-578T = system: Hs-578T
T47D = system: T47D

Measured: GI50

O=C(NC(Cc1ccc(I)cc1)C(=O)O)c1ccc(I)cc1 (stereo not drawn)
inactive: UACC-257 > 100 µM | SK-OV-3 > 100 µM | HCC 2998 > 41.7 µM | OVCAR-8 > 74.8 µM | Malme-3M 67.1 µM | SF-268 > 60 µM | DMS-273 94.8 µM | CCRF-CEM 48.2 µM | RPMI-8226 40.3 µM | RXF 393 > 100 µM | MOLT-4 51.5 µM | KM12 > 100 µM | NCI/ADR-RES > 100 µM | LOX IMVI > 100 µM | SF-539 > 74 µM | SK-MEL-2 > 80.4 µM

COc1ccccc1C1C(Cl)C(=O)N1n1cnc2ccccc2c1=O (stereo not drawn)
inactive: SR 85.9 µM | UACC-257 > 100 µM | SK-OV-3 > 100 µM | ACHN > 100 µM | HCC 2998 > 100 µM | OVCAR-8 > 100 µM | Malme-3M > 100 µM | SF-268 > 100 µM | DMS-273 > 100 µM | CCRF-CEM > 100 µM | RPMI-8226 > 100 µM | RXF 393 > 100 µM | MOLT-4 > 100 µM | KM12 > 100 µM | LOX IMVI > 100 µM | SK-MEL-2 > 100 µM

COC(=O)N/N=C(/CC1(O)C(=O)Nc2ccc([N+](=O)[O-])cc21)c1ccccc1 (stereo not drawn)
inactive: SR 29.9 µM | UACC-257 42.4 µM | SK-OV-3 66.4 µM | ACHN 33.3 µM | HCC 2998 67.1 µM | OVCAR-8 29.4 µM | Malme-3M 33 µM | SF-268 45.4 µM | DMS-273 67.8 µM | CCRF-CEM 29.6 µM | Hs-578T 20.8 µM | RPMI-8226 44.6 µM | RXF 393 22 µM | MOLT-4 24.5 µM | KM12 34.4 µM | NCI/ADR-RES 21.8 µM | LOX IMVI 18.9 µM | SF-539 38 µM | T47D 48.8 µM | SK-MEL-2 31.2 µM

c1c2c(cc(-n3nnc4c3CCCCCC4)c1-n1nnc3c1CCCCCC3)CCCCCC2
inactive: SR 3.54 µM | UACC-257 11.7 µM | SK-OV-3 14.8 µM | ACHN 5.71 µM | HCC 2998 12.8 µM | OVCAR-8 12.7 µM | SF-268 9.46 µM | DMS-273 2.99 µM | CCRF-CEM 3.79 µM | RXF 393 8.07 µM | MOLT-4 2.57 µM | KM12 11.8 µM | LOX IMVI 11.8 µM | SK-MEL-2 13.1 µM

COc1ccccc1Cc1nc(-c2ccccc2)nn(C2OC(COC(C)=O)C(OC(C)=O)C(OC(C)=O)C2OC(C)=O)c1=S (stereo not drawn)
inactive: UACC-257 54.3 µM | SK-OV-3 36.7 µM | HCC 2998 > 24.8 µM | OVCAR-8 5.64 µM | Malme-3M 5.53 µM | SF-268 6.1 µM | DMS-273 > 39.2 µM | CCRF-CEM > 100 µM | RPMI-8226 21.8 µM | RXF 393 3.13 µM | MOLT-4 > 60 µM | KM12 > 54.6 µM | NCI/ADR-RES 9.1 µM | LOX IMVI 11.2 µM | SF-539 9.14 µM | SK-MEL-2 11.3 µM

CC1C(=O)C(C)C(c2cccs2)N(N=O)C1c1cccs1 (stereo not drawn)
inactive: UACC-257 > 100 µM | SK-OV-3 > 56 µM | HCC 2998 > 100 µM | OVCAR-8 > 100 µM | SF-268 > 100 µM | DMS-273 > 100 µM | CCRF-CEM > 100 µM | RPMI-8226 > 100 µM | RXF 393 > 100 µM | MOLT-4 > 100 µM | KM12 > 100 µM | NCI/ADR-RES > 100 µM | LOX IMVI > 100 µM | SF-539 > 100 µM | SK-MEL-2 > 89.9 µM

COc1ccc(/C=C2\CCNC2=O)cc1
inactive: UACC-257 > 100 µM | SK-OV-3 > 100 µM | HCC 2998 > 48.5 µM | OVCAR-8 > 100 µM | Malme-3M > 100 µM | SF-268 > 100 µM | DMS-273 > 100 µM | CCRF-CEM > 100 µM | RPMI-8226 > 100 µM | MOLT-4 > 100 µM | KM12 > 100 µM | NCI/ADR-RES > 100 µM | LOX IMVI > 100 µM | SF-539 > 76.6 µM | SK-MEL-2 > 100 µM

CC(NC(=O)C(C)NC(=O)C(N)CCP(C)(=O)O)C(=O)O (stereo not drawn)
inactive: UACC-257 > 100 µM | SK-OV-3 > 100 µM | HCC 2998 > 100 µM | OVCAR-8 > 100 µM | Malme-3M > 100 µM | SF-268 > 100 µM | DMS-273 > 100 µM | CCRF-CEM > 100 µM | RPMI-8226 > 100 µM | RXF 393 > 100 µM | MOLT-4 > 100 µM | KM12 > 100 µM | NCI/ADR-RES > 100 µM | LOX IMVI > 100 µM | SF-539 > 100 µM | SK-MEL-2 > 100 µM

COc1cc(NC(C)CCCN)c2ncccc2c1 (stereo not drawn) [PRIMAQUINE PHOSPHATE]
inactive: ACHN 51.6 µM and 82 µM | HCC 2998 28.2 µM and 16.9 µM | OVCAR-8 70.6 µM and 63.1 µM | SF-268 94.4 µM and 79.3 µM | DMS-273 > 100 µM | CCRF-CEM 26.7 µM and 45.8 µM | Hs-578T 39.4 µM | RPMI-8226 42.8 µM and 22.6 µM | MOLT-4 25.2 µM and 39.4 µM | KM12 > 81.5 µM and 73.3 µM | NCI/ADR-RES > 100 µM | LOX IMVI 43.9 µM and 51.4 µM | SF-539 > 100 µM | T47D 16 µM | SK-MEL-2 26.9 µM and 45.1 µM
